# According to patent publication US12486240B2, “Oxadiazole compounds for controlling or preventing phytopathogenic fungi” (PI INDUSTRIES LTD., priority 2019, dated 2025):
# Test system: Phakopsora pachyrhizi
# Assay: Phakopsora pachyrhizi test on soybean (preventive spray)
# Assay type: in vivo
# Settings: preventive spray on soybean plants, inoculated one day after treatment, rated 3, 7, 10 and 15 days after application, read-out: Efficacy (% control) from disease severity rating versus untreated control
# Description: Example 5: Phakopsora pachyrhizi Test on Soybean Compounds were dissolved in 2% dimethyl sulfoxide/acetone and then mixed with water containing an emulsifier to a calibrated spray volume of 50 mL. This 50 mL spray solution was poured into spray bottles for further applications. To test the preventive activity of compounds, healthy young Soybean plants raised in the greenhouse were sprayed with the active compound preparation at the stated application rates inside the spray cabinets using hollow cone nozzles. One day after treatment, the plants were inoculated with a spore suspension containing 2×10^5 Phakopsora pachyrhizi conidia. The inoculated plants were then kept in a greenhouse chamber at 22-24° C. temperature and 80-90% relative humidity for disease expression. A visual assessment of the compound's performance was carried out by rating the disease severity (0-100% scale) on treated plants 3, 7, 10 and 15 days after application. Efficacy (% control) of the compounds was calculated by comparing the disease rating in the treatment with the one of the untreated control. The sprayed plants were also assessed for plant compatibility by recording symptoms like necrosis, chlorosis and stunting.
row,SMILES,pest or weed control at 500 ppm [%]
1,"CN(Cc1ccccc1)c1c(Nc2ccc(-c3noc(C(F)(F)F)n3)cc2)c(=O)c1=O [Compound 1, 3-(benzyl(methyl)amino)-4-((4-(5-(trifluoromethyl)-1,2,4-oxadiazol-3-yl)phenyl)amino)cyclobut-3-ene-1,2-dione]",≥ 70
2,"COc1c(Nc2ccc(-c3noc(C(F)(F)F)n3)cc2)c(=O)c1=O [Compound 2, 3-methoxy-4((4-(5-(trifluoromethyl)-1,2,4-oxadiazol-3-yl)phenyl)amino)cyclobut-3-ene-1,2-dione]",≥ 70
3,"O=c1c(Nc2ccc(-c3noc(C(F)(F)F)n3)cc2)c(N2CCOCC2)c1=O [Compound 4, 3-morpholino-4((4-(5-(trifluoromethyl)-1,2,4-oxadiazol-3-yl)phenyl)amino)cyclobut-3-ene-1,2-dione]",≥ 70
4,"COC1CCN(c2c(Nc3ccc(-c4noc(C(F)(F)F)n4)cc3)c(=O)c2=O)C1 (stereo not shown) [Compound 5, 3-(3-methoxypyrrolidin-1-yl)-4-((4-(5-(trifluoromethyl)-1,2,4-oxadiazol-3-yl)phenyl)amino)cyclobut-3-ene-1,2-dione]",≥ 70
5,"CCOC1CN(c2c(Nc3ccc(-c4noc(C(F)(F)F)n4)cc3)c(=O)c2=O)C1 [Compound 6, 3-(3-ethoxyazetidin-1-yl)-4-((4-(5-(trifluoromethyl)-1,2,4-oxadiazol-3-yl)phenyl)amino)cyclobut-3-ene-1,2-dione]",≥ 70
6,"O=c1c(Nc2ccc(-c3noc(C(F)(F)F)n3)cc2)c(N2CCC2)c1=O [Compound 9, 3-(azetidin-1-yl)-4-((4-(5-(trifluoromethyl)-1,2,4-oxadiazol-3-yl)phenyl)amino)cyclobut-3-ene-1,2-dione]",≥ 70
7,"CN(Cc1cc(F)cc(F)c1)c1c(Nc2ccc(-c3noc(C(F)(F)F)n3)cc2)c(=O)c1=O [Compound 10, 3((3,5-difluorobenzyl)(methyl)amino)-4-((4-(5-(trifluoromethyl)-1,2,4-oxadiazol-3-yl)phenyl)amino)cyclobut-3-ene-1,2-dione]",≥ 70
8,"CCCN(C)c1c(Nc2ccc(-c3noc(C(F)(F)F)n3)cc2)c(=O)c1=O [Compound 11, 3-(methyl(propyl)amino)-4-((4-(5-(trifluoromethyl)-1,2,4-oxadiazol-3-yl)phenyl)amino)cyclobut-3-ene-1,2-dione]",≥ 70
9,"CN(C)c1c(Nc2ccc(-c3noc(C(F)(F)F)n3)cc2)c(=O)c1=O [Compound 12, 3-(dimethylamino)-4-((4-(5-(trifluoromethyl)-1,2,4-oxadiazol-3-yl)phenyl)amino)cyclobut-3-ene-1,2-dione]",≥ 70
10,"O=C1CN(c2c(Nc3ccc(-c4noc(C(F)(F)F)n4)cc3)c(=O)c2=O)CCN1 [Compound 13, 3-(3-oxopiperazin-1-yl)-4-((4-(5-(trifluoromethyl)-1,2,4-oxadiazol-3-yl)phenyl)amino)cyclobut-3-ene-1,2-dione]",≥ 70
11,"C=CCN(C)c1c(Nc2ccc(-c3noc(C(F)(F)F)n3)cc2)c(=O)c1=O [Compound 14, 3-(allyl(methyl)amino)-4-((4-(5-(trifluoromethyl)-1,2,4-oxadiazol-3-yl)phenyl)amino)cyclobut-3-ene-1,2-dione]",≥ 70
12,"N#CC1CCN(c2c(Nc3ccc(-c4noc(C(F)(F)F)n4)cc3)c(=O)c2=O)C1 (stereo not shown) [Compound 15, 1-(3,4-dioxo-2-((4-(5-(trifluoromethyl)-1,2,4-oxadiazol-3-yl)phenyl)amino)cyclobut-1-en-1-yl)pyrrolidine-3-carbonitrile]",≥ 70
13,"CN1CCN(c2c(Nc3ccc(-c4noc(C(F)(F)F)n4)cc3)c(=O)c2=O)CC1 [Compound 16, 3-(4-methylpiperazin-1-yl)-4-((4-(5-(trifluoromethyl)-1,2,4-oxadiazol-3-yl)phenyl)amino)cyclobut-3-ene-1,2-dione]",≥ 70
14,"O=c1c(NCc2ccc(-c3noc(C(F)(F)F)n3)cc2)c(N2CCOCC2)c1=O [Compound 17, 3-morpholino-4-((4-(5-(trifluoromethyl)-1,2,4-oxadiazol-3-yl)benzyl)amino)cyclobut-3-ene-1,2-dione]",≥ 70
15,"COc1c(NCc2ccc(-c3noc(C(F)(F)F)n3)cc2)c(=O)c1=O [Compound 18, 3-methoxy-4-((4-(5-(trifluoromethyl)-1,2,4-oxadiazol-3-yl)benzyl)amino)cyclobut-3-ene-1,2-dione]",≥ 70
16,"COCCNc1c(NCc2ccc(-c3noc(C(F)(F)F)n3)cc2)c(=O)c1=O [Compound 19, 3-((2-methoxyethyl)amino)-4-((4-(5-(trifluoromethyl)-1,2,4-oxadiazol-3-yl)benzyl)amino)cyclobut-3-ene-1,2-dione]",≥ 70

row,SMILES,pest or weed control at 500 ppm [%]
1,"C=CCNc1c(NCc2ccc(-c3noc(C(F)(F)F)n3)cc2)c(=O)c1=O [Compound 20, 3-(allylamino)-4-((4-(5-(trifluoromethyl)-1,2,4-oxadiazol-3-yl)benzyl)amino)cyclobut-3-ene-1,2-dione]",≥ 70
2,"O=c1c(NCc2ccc(-c3noc(C(F)(F)F)n3)cc2)c(N2CCSCC2)c1=O [Compound 31, 3-thiomorpholino-4-((4-(5-(trifluoromethyl)-1,2,4-oxadiazol-3-yl)benzyl)amino)cyclobut-3-ene-1,2-dione]",≥ 70
3,"O=c1c(NCc2ccc(-c3noc(C(F)(F)F)n3)cc2)c(N2CC(O)C2)c1=O [Compound 32, 3-(3-hydroxyazetidin-1-yl)-4-((4-(5-(trifluoromethyl)-1,2,4-oxadiazol-3-yl)benzyl)amino)cyclobut-3-ene-1,2-dione]",≥ 70
4,"O=c1c(NCc2ccc(-c3noc(C(F)(F)F)n3)cc2)c(N2CCC(F)(F)C2)c1=O [Compound 33, 3-(3,3-difluoropyrrolidin-1-yl)-4-((4-(5-(trifluoromethyl)-1,2,4-oxadiazol-3-yl)benzyl)amino)cyclobut-3-ene-1,2-dione]",≥ 70
5,"COc1c(N(C)Cc2ccc(-c3noc(C(F)(F)F)n3)cc2)c(=O)c1=O [Compound 41, 3-methoxy-4-(methyl(4-(5-(trifluoromethyl)-1,2,4-oxadiazol-3-yl)benzyl)amino)cyclobut-3-ene-1,2-dione]",≥ 70
6,"CN(Cc1ccc(-c2noc(C(F)(F)F)n2)cc1)c1c(N2CCOCC2)c(=O)c1=O [Compound 42, 3-(methyl(4-(5-(trifluoromethyl)-1,2,4-oxadiazol-3-yl)benzyl)amino)-4-morpholinocyclobut-3-ene-1,2-dione]",≥ 70
7,"CN(Cc1ccc(-c2noc(C(F)(F)F)n2)cc1)c1c(N2CCCC2)c(=O)c1=O [Compound 44, 3-(methyl(4-(5-(trifluoromethyl)-1,2,4-oxadiazol-3-yl)benzyl)amino)-4-(pyrrolidin-1-yl)cyclobut-3-ene-1,2-dione]",≥ 70
8,"COC1CN(c2c(N(C)Cc3ccc(-c4noc(C(F)(F)F)n4)cc3)c(=O)c2=O)C1 [Compound 45, 3-(3-methoxyazetidin-1-yl)-4-(methyl(4-(5-(trifluoromethyl)-1,2,4-oxadiazol-3-yl)benzyl)amino)cyclobut-3-ene-1,2-dione]",≥ 70
9,"CN(Cc1ccc(-c2noc(C(F)(F)F)n2)cc1)c1c(N2CC(C#N)C2)c(=O)c1=O [Compound 46, 1-(2-(methyl(4-(5-(trifluoromethyl)-1,2,4-oxadiazol-3-yl)benzyl)amino)-3,4-dioxocyclobut-1-en-1-yl)azetidine-3-carbonitrile]",≥ 70
10,"CN(Cc1ccc(-c2noc(C(F)(F)F)n2)cc1)c1c(N2CCC2)c(=O)c1=O [Compound 47, 3-(azetidin-1-yl)-4-(methyl(4-(5-(trifluoromethyl)-1,2,4-oxadiazol-3-yl)benzyl)amino)cyclobut-3-ene-1,2-dione]",≥ 70
11,"CC(C)OC1CN(c2c(N(C)Cc3ccc(-c4noc(C(F)(F)F)n4)cc3)c(=O)c2=O)C1 [Compound 48, 3-(3-isopropoxyazetidin-1-yl)-4-(methyl(4-(5-(trifluoromethyl)-1,2,4-oxadiazol-3-yl)benzyl)amino)cyclobut-3-ene-1,2-dione]",≥ 70
12,"CN(Cc1ccc(-c2noc(C(F)(F)F)n2)cc1)c1c(N2CC3(COC3)C2)c(=O)c1=O [Compound 49, 3-(methyl(4-(5-(trifluoromethyl)-1,2,4-oxadiazol-3-yl)benzyl)amino)-4-(2-oxa-6-azaspiro[3.3]heptan-6-yl)cyclobut-3-ene-1,2-dione]",≥ 70
13,"CN(Cc1ccc(-c2noc(C(F)(F)F)n2)cc1)c1c(N2CCC(F)(F)C2)c(=O)c1=O [Compound 50, 3-(3,3-difluoropyrrolidin-1-yl)-4-(methyl(4-(5-(trifluoromethyl)-1,2,4-oxadiazol-3-yl)benzyl)amino)cyclobut-3-ene-1,2-dione]",≥ 70
14,"CC(C)Nc1c(N(C)Cc2ccc(-c3noc(C(F)(F)F)n3)cc2)c(=O)c1=O [Compound 51, 3-(isopropylamino)-4-(methyl(4-(5-(trifluoromethyl)-1,2,4-oxadiazol-3-yl)benzyl)amino)cyclobut-3-ene-1,2-dione]",≥ 70
15,"CN1CCN(c2c(N(C)Cc3ccc(-c4noc(C(F)(F)F)n4)cc3)c(=O)c2=O)CC1 [Compound 52, 3-(methyl(4-(5-(trifluoromethyl)-1,2,4-oxadiazol-3-yl)benzyl)amino)-4-(4-methylpiperazin-1-yl)cyclobut-3-ene-1,2-dione]",≥ 70
